The values below come from ChEMBL document CHEMBL3217409 (Medchemcomm, 2011).

Structures are written as SMILES. pKi: −log10 of the molar value. The source made the active and inactive calls. No cut-off for these calls is given here.

T1 sequence (P48039 whole entry): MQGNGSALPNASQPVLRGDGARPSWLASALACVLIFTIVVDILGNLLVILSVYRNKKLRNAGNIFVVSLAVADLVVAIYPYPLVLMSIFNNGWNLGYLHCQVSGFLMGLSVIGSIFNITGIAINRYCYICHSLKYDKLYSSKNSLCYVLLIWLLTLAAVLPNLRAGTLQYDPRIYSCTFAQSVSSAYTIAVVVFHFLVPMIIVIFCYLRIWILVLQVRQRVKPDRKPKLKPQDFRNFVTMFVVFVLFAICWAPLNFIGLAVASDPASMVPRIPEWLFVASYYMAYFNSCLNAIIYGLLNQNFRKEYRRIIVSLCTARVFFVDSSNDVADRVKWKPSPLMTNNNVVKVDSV

One assay addresses T1, Melatonin receptor type 1A (Homo sapiens, UniProt P48039). The experiment in a line: Antagonist activity at human MT1 receptor expressed in CHO cells assessed as inhibition of melatonin-induced activity at 10 to 100 nM. The format is cell-based.
For the molecule `COc1ccc2[nH]c(CN3Cc4ccccc4C3)c(CCNC(C)=O)c2c1`, the inhibition entry is “Active”.

Another assay has as its target T1, Melatonin receptor type 1A. The experiment in a line: Intrinsic activity at human MT1 receptor expressed in CHO cells. The assay is classed as cell-based.
On to `COc1ccc2[nH]c(CN3Cc4ccccc4C3)c(CCNC(C)=O)c2c1`, for which the outcome was inactive.

For another assay, the species on record is Homo sapiens. The experiment in a line: Selectivity ratio of Ki for human MT1 receptor to Ki for human MT2 receptor.
Regarding `CCC(=O)NCCCc1cc(OC)ccc1OCc1cccc(OC)c1`, the Ratio Ki turned out to be 790.
On the same count and under the same terms, as for `COc1ccc2[nH]c(CN3CCc4ccccc43)c(CCNC(C)=O)c2c1`, the figure is 95; as for `COc1ccc2[nH]c(CN3Cc4ccccc4C3)c(CCNC(C)=O)c2c1`, 124.

Another assay deals with T1, Melatonin receptor type 1A. As to the kind of experiment: Displacement of 2-[125I]-iodomelatonin from human MT1 receptor expressed in CHO cells. The assay is classed as cell-based.
Usually pKi stands for −log10 of the Ki, conventionally taken in molar units. `CCC(=O)NCCCc1cc(OC)ccc1OCc1cccc(OC)c1` showed a pKi of 5.87.
For the molecule `C=CCC(=O)NCCc1c(CN2Cc3ccccc3C2)[nH]c2ccc(OC)cc12`, the negative logarithm of the Ki (pKi) is 7.62.
Still for that read-out and setting: as for `CCC(=O)NCCc1c(CN2Cc3ccccc3C2)[nH]c2ccc(OC)cc12`, the figure is 8.25; as for `COc1ccc2[nH]c(CN3Cc4ccccc4C3)c(CCNC(=O)C3CCC3)c2c1`, 6.95.
Same read-out and setting: as for `COc1ccc2[nH]c(Cn3ccc4ccccc43)c(CCNC(=O)C3CCC3)c2c1`, the figure is 7.24; as for `COc1ccc2[nH]c(CN3Cc4ccccc4C3)c(CCNC(C)=O)c2c1`, 6.55; as for `COc1ccc2[nH]c(CN3CCc4ccccc4C3)c(CCNC(C)=O)c2c1`, 6.60.
Still for that read-out and setting: with `COc1ccc2[nH]c(Cn3ccc4ccccc43)c(CCNC(C)=O)c2c1` the figure was 6.74.
Take `COc1ccc2[nH]c(CN3Cc4ccccc4C3)c(CCNC(=O)C3CC3)c2c1`: the negative-log Ki (pKi) is 7.21.

A further assay addresses T2, Melatonin receptor type 1B (Homo sapiens) (UniProt P49286).
T2 sequence (whole entry): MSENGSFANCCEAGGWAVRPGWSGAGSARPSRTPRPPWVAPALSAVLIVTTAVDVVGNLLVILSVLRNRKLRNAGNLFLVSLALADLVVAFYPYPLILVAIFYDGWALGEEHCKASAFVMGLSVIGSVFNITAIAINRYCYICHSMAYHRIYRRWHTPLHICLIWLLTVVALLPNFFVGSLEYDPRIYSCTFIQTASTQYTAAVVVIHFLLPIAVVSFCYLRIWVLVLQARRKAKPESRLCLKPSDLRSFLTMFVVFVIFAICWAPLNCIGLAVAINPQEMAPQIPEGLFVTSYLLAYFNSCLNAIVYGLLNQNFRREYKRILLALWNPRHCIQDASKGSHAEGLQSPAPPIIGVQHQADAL
As to the kind of experiment: Intrinsic activity at human MT2 receptor expressed in CHO cells. The assay is classed as cell-based.
Consider `COc1ccc2[nH]c(CN3Cc4ccccc4C3)c(CCNC(C)=O)c2c1`, for which the result was inactive.

Another assay addresses T2, Melatonin receptor type 1B (Homo sapiens). The experiment in a line: Antagonist activity at human MT2 receptor expressed in CHO cells assessed as inhibition of melatonin-induced activity at 10 to 100 nM. The format is cell-based.
As for `COc1ccc2[nH]c(CN3Cc4ccccc4C3)c(CCNC(C)=O)c2c1`, the inhibition result was “Active”.

Another assay addresses T3, Melatonin receptor type 1B (Homo sapiens, UniProt P49286).
T3 sequence (P49286 whole entry): T2 sequence (whole entry)
The experiment in a line: Displacement of 2-[125I]-iodomelatonin from human MT2 receptor expressed in CHO cells. The assay is classed as cell-based.
For the molecule `CCC(=O)NCCCc1cc(OC)ccc1OCc1cccc(OC)c1`, the negative logarithm of the Ki (pKi) is 8.77.
Same read-out and setting: as for `C=CCC(=O)NCCc1c(CN2Cc3ccccc3C2)[nH]c2ccc(OC)cc12`, the figure is 8.03; as for `CCC(=O)NCCc1c(CN2Cc3ccccc3C2)[nH]c2ccc(OC)cc12`, 8.43.
The same measure, in the same setting: with `COc1ccc2[nH]c(CN3Cc4ccccc4C3)c(CCNC(=O)C3CCC3)c2c1` the figure was 6.70; with `COc1ccc2[nH]c(Cn3ccc4ccccc43)c(CCNC(=O)C3CCC3)c2c1`, 7.09.
On the same count and under the same terms, as for `COc1ccc2[nH]c(CN3Cc4ccccc4C3)c(CCNC(C)=O)c2c1`, the figure is 8.65; as for `COc1ccc2[nH]c(CN3CCc4ccccc4C3)c(CCNC(C)=O)c2c1`, 7.67; as for `COc1ccc2[nH]c(Cn3ccc4ccccc43)c(CCNC(C)=O)c2c1`, 8.24.
`COc1ccc2[nH]c(CN3Cc4ccccc4C3)c(CCNC(=O)C3CC3)c2c1` showed a pKi of 7.47.
